Data set [1] deals with adult patients with chronic low back pain. The data set can be described thus: Study 1059: adverse events and adjudicated joint safety. The data set is classed as in vivo, human. From the text:
For subjects who are identified with a possible or probable joint event (i.e., rapidly progressive osteoarthritis, subchondral insufficiency fractures, spontaneous osteonecrosis of the knee (SPONK), primary osteonecrosis or pathological fracture) and subjects undergoing total joint replacement for any reason, all images and other source documentation may be provided to the blinded Adjudication Committee for review and adjudication of the event. The Adjudication Committee's assessment of the event may represent the final classification of the event.
(§1) Patients were also required to have documented history of previous inadequate treatment response to at least 3 different categories of agents commonly used and generally considered effective for the treatment of chronic low back pain. Patients were required to discontinue all medications for the treatment of chronic low back pain during the primary efficacy assessment period (up to Week 16).

For data set [2] the test system is unchanged. The data set can be described thus: Study 1059, Phase 3: efficacy (LBPI, RMDQ) in chronic low back pain. The data set is classed as in vivo, human. As to conditions: 100-300 mg daily oral. Here is the method:
The Low Back Pain Intensity (LBPI) measure is assessed with an 11-point numeric rating scale ranging from 0 (no pain) to 10 (worst possible pain). The LBPI score can be the daily average LBPI score.
The Roland Morris Disability Questionnaire (RMDQ) is an index of how well subjects with low back pain are able to function with regard to daily activities (Roland M, Fairbank. The Roland-Morris Questionnaire and the Oswestry Disability Questionnaire. Spine. 2000; 25 (4)3115-3124). It is a low back pain-specific assessment of physical function with scores ranging from 0 to 24 (lower scores indicate better function).
as §1
Approximately 1800 patients were planned to be randomized initially in a 2:2:2:3 ratio to 1 of 4 following treatment groups:
1. Placebo administered SC at an 8-week interval plus placebo matching tramadol PR up to Week 16. At the Week 16 visit, patients in this group were switched in a blinded fashion in a 1:1 ratio to either tanezumab 5 mg or tanezumab 10 mg administered SC at an 8 week interval plus placebo matching tramadol PR to Week 56;
2. Tanezumab 5 mg SC administered at an 8-week interval plus placebo matching tramadol PR to Week 56;
3. Tanezumab 10 mg SC administered at an 8-week interval plus placebo matching tramadol PR to Week 56;
4. Oral tramadol PR 100-300 mg daily plus placebo administered SC at an 8-week interval to Week 56.
To achieve the initial randomization and intended re-randomization at Week 16 for placebo patients, a randomization ratio 1:1:2:2:3 for placebo→tanezumab 5 mg (at Week 16), placebo→tanezumab 10 mg (at Week 16), tanezumab 5 mg, tanezumab 10 mg, and tramadol PR was used at the beginning of the trial.
Table 2 summarizes the requirements for analgesic medication usage prior to Screening and the requirements for LBPI and Patient's Global Assessment (PGA) of CLBP. The current study enrolled patients who were more refractory to standard of care treatments for CLBP and had higher LBPI scores at Baseline.

In data set [3] the test system is subjects with chronic low back pain (CLBP). The data set can be described thus: Study 1063, Phase 3 in Japan: efficacy (LBPI, RMDQ) in chronic low back pain. As to conditions: 100 mg BID. The data set is classed as in vivo, human. How it is done: Patients received a total of seven SC injections, separated by 8 weeks (tanezumab or
Treatment groups were as follows: 1. […] Placebo for tanezumab SC and celecoxib BID.
The Intent-to-Treat (ITT) analysis set included all patients who were randomized and received at least one dose of SC study medication (either tanezumab or placebo). This analysis set was primary for all efficacy endpoints, which were analyzed according to randomization assignment, and was labeled as the ‘ITT population’.

Data set [4] shares this test system. Kind of data set: Study 1063: adverse events and adjudicated joint safety.
Protocol: This second study (termed “Study 1063) was a randomized, double-blind, active-controlled, multicenter, parallel-group Phase 3 study in Japan to evaluate the safety and efficacy of tanezumab when administered by SC injection for up to 56 weeks in subjects with chronic low back pain (CLBP). […] Patients were also required to be experiencing some benefit from their current stable dose regimen of oral therapy of NSAID (celecoxib 200 mg/day [100 mg BID], loxoprofen 120 to 180 mg/day or meloxicam 5 to 15 mg/day) treatment, but still required additional pain relief at screening. […] Patients with a diagnosis of osteoarthritis of the knee or hip as defined by the American College of Rheumatology combined clinical and radiographic criteria or who had Kellgren Lawrence Grade ≥2 radiographic evidence of hip osteoarthritis or Kellgren Lawrence Grade ≤3 radiographic evidence of knee osteoarthritis were excluded.
Treatment groups were as follows: 1. Tanezumab 5 mg SC and placebo for celecoxib BID; 2. Tanezumab 10 mg SC and placebo for celecoxib BID; 3. Placebo for tanezumab SC and celecoxib BID.
This study was designed with a total (post-randomization) duration of 80 weeks and consisted of three periods: (1) a Screening period (up to a maximum of 37 days), (2) a Double-blind Treatment period (56 weeks), and (3) a Safety Follow-up (24 weeks) Period (FIG. 8). The Screening Period included a Washout Period (lasting 2-32 days) if required, and an Initial Pain Assessment Period (IPAP) (5 days prior to Randomization/Baseline; minimum 4 days).
The Safety analysis set included all patients who received at least one dose of SC study treatment. This analysis set was primary for all safety endpoints, which were analyzed according to treatment received, and was labeled as the ‘Safety population’. In this study, the ITT and Safety analysis sets were identical.
Data set [5] relates to low back pain. The settings on record: 500 mg BID; prior study; cited from earlier work.
[6] abbreviates: 100 mg BID, 56-week treatment period.

With `COc1cccc(C2(O)CCCCC2CN(C)C)c1` (stereo not drawn) [Tramadol PR, tramadol, reference compound], in data set [1] (100-300 mg daily oral), the “incidence of composite joint safety endpoint” value came out at 0.2%; the “observation-time adjusted rate of composite joint safety endpoint” value amounted to 1.9 events/1000 patient-years; the “patients with joint safety event adjudicated to RPOA Type 1” value was 0.2%; the “patients with joint safety event adjudicated to RPOA Type 1, number” value is reported as 1 patients. In addition, in data set [1] (tramadol PR-treated patients), the “patients with adjudicated event of RPOA” value is 0.2%. Also, the “patients with joint safety event requiring adjudication” value in data set [1] (tramadol PR-treated patients, 80-week observation period) is on record as 0.7%. In addition, in data set [2], the “LBPI change from Baseline to Week 2, Difference vs. plc” value is recorded as −0.19; the “LBPI change from Baseline to Week 16, LS Mean” value is −2.81; the “Proportion of patients with ≥50% improvement in LBPI at Week 16” value is “(42.8) %”; the “RMDQ change from Baseline to Week 16, Difference vs. plc” value is reported as −0.26. In data set [2], the “RMDQ change from Baseline to Week 16, LS Mean” value is listed as −5.21; the “percentage of patients achieving ≥30% improvement in LBPI at week 16” value was 57.9%; the “≥30% improvement in LBPI at week 16, odds ratio versus placebo” value worked out at 1.08; the “≥50% improvement in LBPI at Week 16, OR vs. plc” value is 1.25.

`Cc1ccc(-c2cc(C(F)(F)F)nn2-c2ccc(S(N)(=O)=O)cc2)cc1` [celecoxib]: in data set [3], the “Proportion of Patients with ≥50% Improvement in LBPI at Week 16 (Mixed BOCF/LOCF)” value is on record as “(32.6%)”. In data set [3] (ITT), the “Change from Baseline to Week 16 in LBPI (Multiple Imputation), LS Mean” value is listed as −2.28 and the “Change from Baseline to Week 16 in RMDQ (Multiple Imputation), LS Mean” value is reported as −3.84. In addition, in data set [4] (100 mg BID), the “frequency of adverse events of potential sympathetic dysfunction” value stood at 7.6%; the “incidence of composite joint safety endpoint” value came out at 0%; the “observation-time adjusted rate of composite joint safety endpoint” value was found to be 0 event/1000 patient-years; the “patients who met criteria for adjudication of a joint safety event, number” value turned out to be 1 patient. Also, in data set [4] (setting [6]), the “incidence of serious adverse events” value is on record as 2.2% and the “overall incidence of adverse events” value amounted to 67.4%. Also, in data set [4] (100 mg BID, during the study), the “Composite Joint Safety Endpoint, n (%)” value was 0 n (%); the “Pathological Fracture, n (%)” value is 0 n (%); the “Patients analyzed by the Adjudication Committee, n (%)” value is reported as 1 (1.1%) n (%); the “Patients with Only Normal Progression of OA, n (%)” value is listed as 0 n (%). In data set [4] (100 mg BID, during the study), the “Patients with Other Joint Outcome, n (%)” value was 1 (1.1%) n (%); the “Primary Osteonecrosis, n (%)” value is listed as 0 n (%); the “RPOA type 1, n (%)” value was 0 n (%); the “RPOA type 2, n (%)” value is listed as 0 n (%). Also, in data set [4] (100 mg BID, during the study), the “RPOA, n (%)” value is recorded as 0 n (%) and the “Subchondral Insufficiency Fracture, n (%)” value is recorded as 0 n (%). In addition, in data set [4] (100 mg BID, treatment period), the “Arthralgia, number (%) of patients” value is listed as 6 (6.5) n (%); the “Back pain, number (%) of patients” value is 4 (4.3) n (%); the “Contusion, number (%) of patients” value is 2 (2.2) n (%); the “Diarrhoea, number (%) of patients” value is listed as 3 (3.3) n (%). Besides, in data set [4] (100 mg BID, treatment period), the “Discontinued from study due to Adverse Event, number (%) of patients” value is given as 0 n (%); the “Discontinued study drug due to Adverse Event and continued study, number (%) of patients” value is reported as 4 (4.3) n (%); the “Discontinued study drug due to Adverse Event, number (%) of patients” value is recorded as 4 (4.3) n (%); the “Fall, number (%) of patients” value was 3 (3.3) n (%). Besides, in data set [4] (100 mg BID, treatment period), the “Gastroenteritis, number (%) of patients” value is recorded as 3 (3.3) n (%); the “Headache, number (%) of patients” value was 2 (2.2) n (%); the “Hypertension, number (%) of patients” value is reported as 3 (3.3) n (%); the “Hypoaesthesia, number (%) of patients” value is 3 (3.3) n (%). Also, in data set [4] (100 mg BID, treatment period), the “Intervertebral disc protrusion, number (%) of patients” value is 3 (3.3) n (%); the “Musculoskeletal pain, number (%) of patients” value is on record as 3 (3.3) n (%); the “Myalgia, number (%) of patients” value is 1 (1.1) n (%); the “Nasopharyngitis, number (%) of patients” value is 6 (6.5) n (%). For the same molecule, in data set [4] (100 mg BID, treatment period), the “Pain in extremity, number (%) of patients” value was 3 (3.3) n (%); the “Pneumonia, number (%) of patients” value was 1 (1.1) n (%); the “Pyrexia, number (%) of patients” value was 4 (4.3) n (%); the “Serious Adverse Event, number (%) of patients” value is 2 (2.2) n (%). In data set [4] (100 mg BID, treatment period), the “Severe Adverse Event, number (%) of patients” value was 1 (1.1) n (%); the “frequency of adverse events of abnormal peripheral sensation” value stood at 4.3%; the “incidence of discontinuations from treatment due to an adverse event” value turned out to be 4.3%. Moreover, the “Adverse Event, number (%) of patients” value in data set [4] (100 mg BID, treatment period, all causalities) is 62 (67.4) n (%). In addition, in data set [4] (celecoxib-treated patients, 80-week observation period), the “patients who met criteria for adjudication of joint safety outcome” value is recorded as 1.1%.

Regarding `COc1ccc2cc([C@H](C)C(=O)O)ccc2c1` [naproxen], in data set [5], the “LBPI endpoints relative to placebo” value is “significant differences relative to placebo” and the “RMDQ endpoint relative to placebo” value was “not the RMDQ endpoint”.

Values taken from patent publication US20220135663A1, “Method of treatment of Chronic Low Back Pain” (Pfizer Inc., priority 2019, published 2022).
